{"source": "patent US20060127505A1", "about": "“Anti-inflammatory formulations” (priority 2002, published 2006)", "key": {"[1]": {"test_system": "CD3+CD25+ lymphocytes in human PBMC", "assay": "PHA-mediated induction of CD3+CD25+ lymphocytes in human PBMC (Example 8)", "format": "cell-based", "details": "PHA 50 μg/ml, 24 hours", "method": "(§1) Cells from 3-12 asthma patients were cultured 24 hours with 50 μg/ml PHA. PBMC evaluated by 2-color flow cytometry were gated for CD3+ and analyzed for CD3+CD25+ or CD3+HLA-DR+ as a percentage of the CD3+ population. Results are reported as stimulation indices (SI) calculated as the ratio of % CD3+CD25+ cells or % CD3+HLA-DR+ cells in fully-stimulated cultures to % CD3+CD25+ or % CD3+HLA-DR+ respectively in cells treated with PHA plus ASX, GB, or combinations thereof."}, "[2]": {"test_system": "CD3+CD25+ cells in human PBMC", "assay": "T lymphocyte activation (CD3+CD25+) in PHA-stimulated PBMC of asthma patients (Example 6)", "format": "cell-based", "details": "PHA 50 μg/ml, 24 hours; 10^−7 M", "method": "Experiments were carried out to determine whether formulations based on the platelet activating factor receptor (PAFR) antagonist and free radical scavenger Ginkgolide B (GB) in combination with the antioxidant carotenoid astaxanthin (ASX) suppress T cell activation in the same dose range as two commonly-used antihistamines: cetirizine dihydrochloride (CTZ/Zyrtec) and azelastine ([…]). […] Results are reported as stimulation indices (SI) of % CD3+CD25+ cells in cultures treated with PHA alone to % CD3+CD25+ cells in each drug-supplemented culture. […] Subjects for this study included 12 patients diagnosed with atopic asthma, 7 male and 5 female, ranging in age from 21 to 40 years (mean 28±1.8 years). Disease duration ranged from 2 to 12 years. Atopy was defined on the basis of one or more positive skin prick tests to a range of 20 allergens. None of the patients had received systemic therapy for at least 6 weeks prior to blood collection. The mean serum IgE was 335 (170-480) IU/ml. Venous blood for each subject was collected in polyethylene tubes containing EDTA during a one hour morning time interval. PBMC were separated by Ficoll-paque (Pharmacia, Uppsala, Sweden) density gradient centrifugation. Cells were washed and suspended in RPMI 1640 medium (Gibco BRL, Gaithersburg, Md.) at density of 1×10^6 cells/ml. PBMC were stimulated with 50 μg/ml Phytohemaglutinin (PHA) (Sigma Immunopharmaceuticals, St. Lous Mo.), or PHA plus 10^-8-10^-5 M astaxanthin (Natural Alternatives International (NAI) Inc., San Marcos Calif.); or ginkgolide B 10^-8-10^-6 M (NAI San Marcos Calif.); or selected combinations of ASX plus GB. Comparison of ASX and GB effects on T cell activation were made with two other pharmacological agents with anti-asthmatic properties by treating cells with 10^-7-10^-4 M cetirizine dihydrochloride (Pfizer Pharmaceuticals, Norwich Conn.); or 10^-7-10^-4 M azalestine hydrochloride (Wallace Pharmaceuticals, Somerset N.J.), followed by evaluation of cultures for the same biological endpoints as ASX/GB-treated cells. Each reagent was added at the outset of a 24 hours culture period, followed by harvest of cellular fraction for immunophenotyping studies. […] Two-color Flow cytometry was conducted using a Coulter Epics XL automated flow cytometer (Coulter Scientific, Hialeah, Fla., USA). Isotypic controls for the monoclonal antibodies (mAb) used to detect antigens of interest were established for each cell preparation. Positive analysis regions for cells expressing specific surface markers were set against controls and specific binding of fluorophore-conjugated mAb was analyzed by cytofluorography according to standard methods recommended by the manufacturer. Lymphocyte subpopulations were identified by position on forward and side scatter plots and live-gated. Expression of each antigen was reported as percentage cells positive for a particular T cell subpopulation defined by expression of CD3 (T lymphocyte marker) plus CD25, plus or minus standard error. Statistical analysis was performed using an independent t-test. All statistical analyses were performed using the SPSS for Windows statistical package (Norusis/SPSS, Inc.). […] The capacity of formulations evaluated in this study to suppress immune activation was measured as a stimulation index (SI), defined as the ratio of […]."}, "[3]": {"assay": "Allergy symptoms in an allergy patient", "format": "in vivo, human", "method": "Astaxanthin or astaxanthin plus a cetirizine together was administered to an allergy patient."}, "[4]": {"test_system": "CD3+HLA-DR+ lymphocytes in human PBMC", "assay": "PHA-mediated induction of CD3+HLA-DR+ lymphocytes in human PBMC (Example 8)", "format": "cell-based", "details": "PHA 50 μg/ml, 24 hours", "method": "as §1"}, "[5]": {"test_system": "PMA/I-treated human PBMC", "assay": "Inflammation-associated T cell surface antigens (CD25, CD54) in PMA/I-treated human PBMC, two-color flow cytometry", "format": "cell-based", "method": "In vitro studies indicate that astaxanthin suppresses expression of inflammation-associated T cell surface antigens in PMA/I-treated human PBMC. […]\nAnalysis of blood for representation by selected lymphocyte subpopulations was conducted by two-color flow cytometry."}}, "data": [{"molecule": "CC1=C(/C=C/C(C)=C/C=C/C(C)=C/C=C/C=C(C)/C=C/C=C(C)/C=C/C2=C(C)C(=O)[C@@H](O)CC2(C)C)C(C)(C)C[C@H](O)C1=O", "note": "[astaxanthin, 3,3′-dihydroxy-4,4′-diketo-B-carotene]", "values": [{"measurement": "CD3+CD25+ Stimulation Index", "setting": "[1]; 10^−4 M", "result": "0.49 ± 0.09"}, {"measurement": "CD3+CD25+ Stimulation Index", "setting": "[1]; 10^−5 M", "result": "0.95 ± 0.06"}, {"measurement": "CD3+CD25+ Stimulation Index", "setting": "[1]; 10^−6 M", "result": "0.96 ± 0.10"}, {"measurement": "CD3+CD25+ Stimulation Index", "setting": "[1]; 10^−7 M", "result": "0.90 ± 0.05"}, {"measurement": "CD3+CD25+ Stimulation Index", "setting": "[1]; 10^−8 M", "result": "0.95 ± 0.05"}, {"measurement": "SI (CD3+CD25+)", "setting": "[2]", "result": "0.89±0.06"}, {"measurement": "alleviation of allergy symptoms such as itching", "setting": "[3]", "result": "did not result in alleviation of allergy symptoms"}, {"measurement": "CD3+HLA-DR+ Stimulation Index", "setting": "[4]; 10^−4 M", "result": "0.85 ± 0.18"}, {"measurement": "CD3+HLA-DR+ Stimulation Index", "setting": "[4]; 10^−5 M", "result": "0.79 ± 0.19"}, {"measurement": "CD3+HLA-DR+ Stimulation Index", "setting": "[4]; 10^−6 M", "result": "0.83 ± 0.23"}, {"measurement": "CD3+HLA-DR+ Stimulation Index", "setting": "[4]; 10^−7 M", "result": "0.71 ± 0.23"}, {"measurement": "CD3+HLA-DR+ Stimulation Index", "setting": "[4]; 10^−8 M", "result": "0.68 ± 0.16"}, {"measurement": "% CD3+CD54+ cells", "setting": "[5]; Subject A, first column, 10^-6 M", "result": 4.2, "unit": "%"}, {"measurement": "% CD3+CD54+ cells", "setting": "[5]; Subject A, first column, 10^-7 M", "result": 8.4, "unit": "%"}, {"measurement": "% CD3+CD54+ cells", "setting": "[5]; Subject A, second column, 10^-6 M", "result": 3.3, "unit": "%"}, {"measurement": "% CD3+CD54+ cells", "setting": "[5]; Subject A, second column, 10^-7 M", "result": 10.6, "unit": "%"}, {"measurement": "% CD3+CD54+ cells", "setting": "[5]; Subject B, first column, 10^-6 M", "result": 6.3, "unit": "%"}, {"measurement": "% CD3+CD54+ cells", "setting": "[5]; Subject B, first column, 10^-7 M", "result": 16.2, "unit": "%"}, {"measurement": "% CD3+CD54+ cells", "setting": "[5]; Subject B, second column, 10^-6 M", "result": 10.3, "unit": "%"}, {"measurement": "% CD3+CD54+ cells", "setting": "[5]; Subject B, second column, 10^-7 M", "result": 21.9, "unit": "%"}]}]}
